Several values for one entry are separate records, joined by “and”; a condition that tells them apart may be missing. Equal values may be shown once. Read-outs that look alike come from different tables or passages of the source.
Tested on: GPR156^E533D/E533D mice
Details: for Effect on impaired swim phenotype (ability to perform 6-minute swim test): GPR156^E533D/E533D mice, Fluoxetine 10 mg/kg i.p. daily for 9 weeks
Protocol: Mice were placed in a 5 liter clear plastic beaker (25×18 cm diameter) filled with 4 liters of 23-25° C. tap water to ensure mice cannot touch the bottom of the flask even with their tail. Four animals were recorded simultaneously using an ANY-maze™ video-tracking system (Stoelting Co.). Data were recorded for 6 minutes. Flask were separated by 3 sided white plastic partitions (40 cm high×25 cm wide). Swim test was recorded for 6 minutes. Recordings were set up to start automatically if there was motion in the flask so that recorded times are specific for each individual mouse.
The 6 minutes recording was broken into three time segments (0-100 seconds, 101-200 second and last […]) to get a better sampling of behaviors across time.
Main data points analyzed for the FST were swim time, time mobile, time immobile, speed, distance traveled, rearing in the swim zone, mobile episodes and immobile episodes. Immobility is defined as 60% of total body mass being immobile for 2 seconds. This parameter allows for small movements of hind legs and feet to maintain balance and or to tread water without be considered actively swimming.
Mice were tested for a 6 minute forced swim test weekly before and after daily treatment with intraperitoneal injection of Fluoxetine 10 mg/kg for […]. Total time of swim test seconds) before and after daily treatment with Fluoxetine was recorded. […] Data were expressed as mean±SEM for each animal group.
To test whether Fluoxetine could reverse the impaired swim test phenotype, GPR156^hum/hum and GPR156^E533D/E533D mice were treated with Fluoxetine 10 mg/kg (i.p) daily for 6 days/week for 9 weeks. […] Therefore, mice were subjected to a swim test (baseline) and animals able to perform the 6 minutes swim test were excluded from the study. The remaining mice were then split into 2 groups, treated and untreated with Fluoxetine.
For this study, mice were subjected to a swim test (baseline) and animals able to perform the 6 minutes swim test were excluded from the study.

## CNCCC(Oc1ccc(C(F)(F)F)cc1)c1ccccc1 (stereo not drawn) [Fluoxetine]
GPR156^E533D/E533D mice (0/13 at baseline), Fluoxetine 10 mg/kg i.p. daily 6 days/week, after 9 weeks, males and females combined
  Percentage of mice achieving the swim test: 53% and 61%
  Effect on impaired swim phenotype (ability to perform 6-minute swim test): improves the impaired swim phenotype
Listed as fluoxetine
  Effect on impaired swim phenotype (ability to perform 6-minute swim test): improved on their ability to perform the swim test
Female mice homozygous for E533D, Fluoxetine 10 mg/kg i.p. daily, after 4 weeks (5 out of 10)
  Percentage of females able to successfully perform the 6 minutes swim test: 50%
Following 4-9 weeks of treatment with Fluoxetine 10 mg/kg, i.p., daily, none able prior to treatment
  Percentage of GPR156^E533D/E533D mice that achieved the test: Fluoxetine (10 mg/kg, i.p., daily), 53%
Male mice homozygous for E533D, Fluoxetine 10 mg/kg i.p. daily, after 4 weeks (5 out of 8)
  Percentage of males able to successfully perform the 6 minutes swim test: 62.5%
